Laboratory results from article PMC9143821, “Design and Synthesis of a Novel 4-aryl-N-(2-alkoxythieno [2,3-b]pyrazine-3-yl)-4-arylpiperazine-1-carboxamide DGG200064 Showed Therapeutic Effect on Colon Cancer through G2/M Arrest” (Pharmaceuticals, 2022).
Where two headings read alike, the source gives them in different places.

What was measured:
[1] = Pharmacokinetics in SD rats; assay type: in vivo; conditions: male, Sprague-Dawley, rat, plasma
Procedure: Sprague–Dawley rats (adult males, 250–300 g) were fasted overnight, and the femoral vein (for iv administration of the compound) and jugular vein (for blood sampling) of each rat were cannulated with polyethylene tubing. The selected compounds dissolved in 30% polyethylene glycol (PEG) in saline were administered either intravenously or orally. At various time points after administration, blood samples (0.5 mL) were collected from the jugular vein, transferred to heparin-coated tubes, centrifuged to separate off the plasma. The plasma was stored at −80 °C until assayed. Compound concentrations in plasma were determined by LC/MS/MS analysis (API4000 mass spectrometer, Applied Biosystem, Waltham, MA, USA). Pharmacokinetic parameters were analyzed using the WinNonlin software program. The area under the curve (AUC) was calculated using the trapezoidal rule extrapolated to infinity. The terminal elimination half-life, systemic clearance, and volume of distribution at steady state were determined. The extent of absolute oral bioavailability (F) was estimated by comparing the AUC values after intravenous and oral administration of the compounds.

Permeability = assay type: in vitro ADME
Description: Table 4 Physicochemical Properties of the Lead Compounds 7c. | column: 7c

FBXW7/c-Jun interaction = test: Immunoprecipitation, ubiquitination and FBXW7/c-Jun interaction; assay type: cell-based, human
Description: To investigate whether the ubiquitination of c-Jun is suppressed through the inhibition of c-Jun and FBXW7 binding by DGG200064, c-Jun immunoprecipitation was done to observe protein–protein interaction (Figure 4). E3 ligase, such as FBXW7, binds the protein to the ubiquitin chain through covalent bonds and rapidly degrades the protein through 26S proteasome. When treated with MG132 as a proteasome inhibitor, the ubiquitination of c-Jun increased compared to both control HCT116 and DLD1 cells. In contrast, the c-Jun ubiquitination was inhibited by DGG200064. The binding between c-Jun and FBXW7 was reduced with DGG200064 treatment. The FBXW7 protein, also known as CDC4, is a component of the SCF complex ubiquitin ligase and is known as a modulator of several substrates including cyclin E, c-Myc, c-Jun, and Notch. To check the selectivity of DGG200064 towards FBXW7 substrates, the change of c-Jun, cyclin E, and c-Myc by DGG200064 was analyzed. […] Cyclin E immunoprecipitation was done to test whether the ubiquitination of cyclin E by FBXW7 is inhibited by DGG200064 in HCT116 (Figure S2b, Supplementary Materials). There were no changes in cyclin E ubiquitination with DGG200064 treatment.
To identified ubiquitination of c-Jun by DGG200064, HCT116 cells were treated with/without MG132 (10 μM) for 6h, DGG200064 (50 nM) for 18 h. The cell lysate was prepared using RIPA buffer for immunoprecipitation. Each lysate was mixed with antibodies (1 μg/mL) of c-Jun or MYC at 4 °C overnight in immunoprecipitation buffer containing 50 mM Tris-Cl,150 mM NaCl, 1 mM EDTA, 0.5% Triton X-100, pH 7.4, and reacted with 10 μL of protein A/G beads UltraLink Resin (50:50 resin: buffer slurry condition) (Peirce, #35133) for 2 h on RT for precipitation. After reaction and centrifugation at 3000 rpm for 3 min, the immunoprecipitated samples were washed with 500 μL of immunoprecipitation buffer by tapping and centrifuged. The washing was repeated five times before western blotting.

In the case of `COc1cc(OC)cc(N2CCN(C(=O)Nc3nc4sccc4nc3OC)CC2)c1` [Compound 7c, 4-(3,5-Dimethoxyphenyl)-N-(2-methoxythieno[2,3-b]pyrazin-3-yl)piperazine-1-carboxamide], the AUC(0-inf) ([1]; SD rats, IV, 1 mg/kg) is reported as 708 ng·h/mL, the AUC(0-t) ([1]; SD rats, IV, 1 mg/kg) is reported as 703 ng·h/mL and the Cmax ([1]; SD rats, IV, 1 mg/kg) is reported as 551 ng/mL. The Tmax ([1]; SD rats, IV, 1 mg/kg) was 0.083 h, the clearance ([1]; SD rats, IV, 1 mg/kg) was 25.2 mL/min/kg and the half-life ([1]; SD rats, IV, 1 mg/kg) was 66.6 min. The Vd ([1]; SD rats, IV, 1 mg/kg, read-out: Vss) was 2.31 L/kg, the AUC(0-inf) ([1]; SD rats, PO, 5 mg/kg) was 964 ng·h/mL and the AUC(0-t) ([1]; SD rats, PO, 5 mg/kg) was 707 ng·h/mL. The Cmax ([1]; SD rats, PO, 5 mg/kg) was 76 ng/mL, the Tmax ([1]; SD rats, PO, 5 mg/kg) was 4.05 h and the half-life ([1]; SD rats, PO, 5 mg/kg) was 450 min. It also gave a bioavailability ([1]; SD rats, PO, 5 mg/kg, read-out: F) of 20.1%, a Cmax ([1]; no unit, species or route stated in b12 (7c value equals SD rats PO of Table 3)) of 76 ng/mL and a bioavailability ([1]; species and route not stated in b12 (7c value equals SD rats PO of Table 3), read-out: bioavailability (F)) of 20.1%. The “Permeability Class” value (Permeability) was “High”, the Papp (Permeability; PAMPA, read-out: Permeability Pe) was 29.5 ×10⁻⁶ cm/s and the “cyclin E ubiquitination” value (FBXW7/c-Jun interaction; HCT116, cyclin E immunoprecipitation) was “no changes”. For the same molecule, the “binding between c-Jun and FBXW7” value (FBXW7/c-Jun interaction; HCT116 and DLD1, 50 nM, 18 h, c-Jun immunoprecipitation) was “reduced” and the c-Jun ubiquitination (FBXW7/c-Jun interaction; HCT116 and DLD1, DGG200064 50 nM 18 h, MG132 10 μM 6 h) was “inhibited”.
